According to patent US20130316965A1, “IDRABI[…] THE TREATMENT OF PULMONARY EMBOLISM AND FOR THE SECONDARY PREVENTION OF VENOUS THRO[…]” (priority 2011, published 2013):

Experiments:
Type in all cases: in vivo, human
[1] = system: patients with symptomatic pulmonary embolism with or without symptomatic deep venous thrombosis; experiment: CASSIOPEA (EFC6034) phase III clinical trial: symptomatic recurrent PE/DVT (efficacy); details: for Hazard ratio, symptomatic recurrent PE/DVT: idrabiotaparinux vs warfarin
Experimental: Patients with confirmed symptomatic PE with or without acute symptomatic DVT are eligible for this trial. Treatment with a therapeutic dose of any LMWH or UFH or fondaparinux is allowed only within the 36 hours immediately preceding randomization. Randomization is performed as soon as the diagnosis of PE (and DVT if concomitant suspected symptomatic DVT) is confirmed.
(§1) A blinded central and independent adjudication committee (CIAC) assesses PE (and DVT when applicable), all episodes of locally confirmed or doubtful PE/DVT recurrences, clinically relevant bleedings and deaths. Adjudication results are the basis for the final analyses.
Patients in the 3-month stratum have an additional 13-week observational period after cessation of study treatment. Patients in the 6-month stratum have a 13-week up to 26-week observational period.
Injections of SSR126517E (or its placebo) is started 12 h after the last post-randomization enoxaparin administration. SSR126517E (or its placebo) is administered s.c. once-weekly for a period of 3 or 6 months. All patients receive a first 0.5 ml injection (3.0 mg in the SSR126517E group). The following injections are also 0.5 ml, except in patients with severe renal insufficiency (defined as creatinine clearance <30 mL/min), who decrease to a dosage of 0.3 ml (1.8 mg in the SSR126517E group).
The primary efficacy outcome is symptomatic recurrent PE/DVT (fatal or not), as validated by the CIAC, within 99 days for patients from both strata (3- and 6-month treatments).
A secondary efficacy outcome for patients in the 6-month stratum is symptomatic recurrent PE/DVT, as validated by the CIAC, within 190 days.
There are 2 additional efficacy outcomes: • the time to first symptomatic recurrent PE/DVT (fatal or non fatal) within the patient's treatment period, i.e. a combined analysis of the 3-and 6-month strata patients; • the separate components of the efficacy outcomes within 99 days (all patients) and within 190 days (6-month stratum patients only).
The definitions to confirm a suspected symptomatic episode of recurrent PE/DVT are as follows:
Efficacy analyses are performed on the—All-randomized—population (patients with a patient number and an allocated treatment number recorded in the IVRS database).
The secondary efficacy outcome (VTE recurrence within 190 days) for patients in the 6-month stratum is analyzed using the same method and applying the same non-inferiority margin.
Time to first symptomatic recurrent PE/DVT within the patient's study treatment period for all patients is analyzed using Cox's proportional hazards model, stratified on intended treatment duration.

[2] = system: patients with symptomatic pulmonary embolism with or without symptomatic deep venous thrombosis; experiment: CASSIOPEA (EFC6034) phase III clinical trial: benefit-risk assessment (PE, DVT or major bleeding composite); details: Randomized population
From the text: Tables 13 and 14 show the incidence of pulmonary embolism, deep venous thrombosis or major bleedings (composite endpoint) in the randomized population in the treatment phase (3-month or 6-month treatment with idrabiotaparinux) and up to the end of the study (assessment at 12 months).

[3] = system: patients with symptomatic pulmonary embolism with or without symptomatic deep venous thrombosis; experiment: CASSIOPEA (EFC6034) phase III clinical trial: deaths; details: overall
From the text: as §1

[4] = system: patients with symptomatic pulmonary embolism with or without symptomatic deep venous thrombosis; experiment: CASSIOPEA (EFC6034) phase III clinical trial: clinically relevant bleeding (safety); details: for Hazard ratio, clinically relevant bleeding: idrabiotaparinux vs warfarin
From the text: According to the instant invention, the term “bleedings” designates any clinically relevant bleeding (i.e. major or clinically relevant non-major hemorrhage).
According to the instant invention, the term “major bleedings” designates any of the following clinical situations: • bleeding associated with a fall in hemoglobin of 2 g per deciliter or more, • bleeding that led to a transfusion of 2 or more units of packed red cells or whole blood (a red cell unit being defined as the quantity of red cells obtained from or corresponding to approximately 500 ml of whole blood), • bleeding that involved a critical organ (intracranial, intraocular, intraspinal, retroperitoneal or pericardial), • bleeding that contributed to death.
as §1
The principal safety outcome is any clinically relevant bleeding as classified by the CIAC (i.e. major bleeding and other clinically relevant non-major bleeding).
Bleeding analyses are also performed on the—All-randomized—population. Other safety analyses are performed on the—All-treated—population.
Rates of clinically relevant bleedings are calculated in each treatment group at 3 months (99 days) and 6 months (190 days) and compared between treatment groups using a Mantel-Haenszel chi-square stratified on intended treatment duration. Cumulative incidences of clinically relevant bleedings during the combined 3-month and 6-month period and up to the end of study are described by treatment group using the Kaplan Meier method.

[5] = Randomized population in the 6-month stratum
[6] = Randomized population, All patients
[7] = Randomized population, Patients with VKA beyond D99/D190
[8] = Randomized population, Patients with no VKA beyond D99/D190
[9] = Randomized population, or death for which PE could not be ruled out
[10] = combined 3-month and 6-month period
[11] = combined 3-month and 6-month periods, time-to-event analysis (Kaplan-Meier)
[12] = treatment period plus 3 to 6-month post-treatment follow-up (up to end of study)
[13] = Cox proportional hazards model, stratified

CO[C@H]1O[C@H](COS(=O)(=O)O)[C@@H](O[C@@H]2O[C@@H](C(=O)O)[C@@H](O[C@H]3O[C@H](COS(=O)(=O)O)[C@@H](O[C@@H]4O[C@H](C(=O)O)[C@@H](O[C@H]5O[C@H](COS(=O)(=O)O)[C@@H](OC)[C@H](OC)[C@H]5NC(=O)CCCCCNC(=O)CCCC[C@@H]5SC[C@@H]6NC(=O)N[C@@H]65)[C@H](OC)[C@H]4OC)[C@H](OS(=O)(=O)O)[C@H]3OS(=O)(=O)O)[C@H](OC)[C@H]2OC)[C@H](OS(=O)(=O)O)[C@H]1OS(=O)(=O)O [Idrabiotaparinux, idrabiotaparinux]
DVT only within 190 days from randomization: Patients with event ([1]; 6-month stratum): 7 (0.6%) n (%) | Non-fatal PE within 190 days from randomization: Patients with event ([1]; 6-month stratum): 9 (0.7%) n (%) | Symptomatic recurrent PE/DVT (fatal or not) from randomization to end of study: Patients with event ([1]; 6-month stratum, All patients): 37 (2.9%) n (%) | Symptomatic recurrent PE/DVT (fatal or not) from randomization to end of study: Patients with event ([1]; 6-month stratum, Patients with VKA beyond D190): 10 (3.2%) n (%) | Symptomatic recurrent PE/DVT (fatal or not) from randomization to end of study: Patients with event ([1]; 6-month stratum, Patients with no VKA beyond D190): 27 (2.8%) n (%) | Reducing the risk of symptomatic recurrent PE/DVT up to Day 190 (non-inferiority) ([1]; 6-month stratum, non-inferiority margin 2.0): at least as effective as warfarin | Fatal PE within 190 days from randomization: Patients with event ([1]; 6-month stratum, or death for which PE could not be ruled out): 13 (1.0%) n (%) | Patients who experienced DVT up to Day 190 ([1]; 6-month stratum, up to Day 190): 0.6% | DVT only up to the end of study: Patients with event ([1]; Randomized population): 10 (0.6%) n (%) | DVT only within 99 days from randomization: Patients with event ([1]; Randomized population): 5 (0.3%) n (%) | Non-fatal PE up to the end of study: Patients with event ([1]; Randomized population): 16 (1.0%) n (%) | Non-fatal PE within 99 days from randomization: Patients with event ([1]; Randomized population): 13 (0.8%) n (%) | Symptomatic recurrent PE/DVT (fatal or not) within 190 days from randomization: Patients with event [1, 5]: 29 (2.3%) n (%) | Symptomatic recurrent PE/DVT within 190 days: Idrabiotaparinux vs. Warfarin odds ratio [1, 5]: 0.80 | Symptomatic recurrent PE/DVT (fatal or not) from D100/D191 to end of study: Patients with event [1, 6]: 9 (0.6%) n (%) | Symptomatic recurrent PE/DVT (fatal or not) from randomization to end of study: Patients with event [1, 6]: 48 (3.0%) n (%) | Symptomatic recurrent PE/DVT within 99 days: Idrabiotaparinux vs. Warfarin odds ratio ([1]; Randomized population, Mantel-Haenszel, stratified on intended treatment duration): 0.79 | Symptomatic recurrent PE/DVT (fatal or not) from D100/D191 to end of study: Patients with event [1, 7]: 4 (1.0%) n (%) | Symptomatic recurrent PE/DVT (fatal or not) from randomization to end of study: Patients with event [1, 7]: 12 (3.1%) n (%) | Symptomatic recurrent PE/DVT (fatal or not) from D100/D191 to end of study: Patients with event [1, 8]: 5 (0.5%) n (%) | Symptomatic recurrent PE/DVT (fatal or not) from randomization to end of study: Patients with event [1, 8]: 36 (3.0%) n (%) | Fatal PE up to the end of study: Patients with event [1, 9]: 22 (1.4%) n (%) | Fatal PE within 99 days from randomization: Patients with event [1, 9]: 16 (1.0%) n (%) | Symptomatic recurrent PE/DVT (fatal or not) within 99 days from randomization: Patients with event ([1]; Randomized population, within 99 days): 34 (2.1%) n (%) | Reducing the risk of symptomatic recurrent PE/DVT up to Day 99 (non-inferiority) ([1]; all randomized population, non-inferiority margin 2.0): at least as effective as warfarin | Hazard ratio, symptomatic recurrent PE/DVT [1, 10]: 0.77 | Cumulative incidence of symptomatic recurrent PE/DVT at Day 99 [1, 11]: 2.2% | Cumulative incidence of symptomatic recurrent PE/DVT at Day 190 [1, 11]: 2.6% | Cumulative incidence rate of symptomatic recurrent PE/DVT at Day 360 [1, 12]: 3.1% | Patients who experienced DVT up to Day 99 ([1]; up to Day 99): 0.3% | Patients who experienced DVT up to the end of study ([1]; up to the end of study): 0.6% | Patients who experienced non-fatal PE up to the end of study ([1]; up to the end of study): 1.0% | Hazard ratio, symptomatic recurrent PE/DVT ([1]; up to the end of the study): 0.49 | Risk reduction in the occurrence of symptomatic recurrent PE/DVT ([1]; up to the end of the study, vs warfarin): 51% | PE, DVT or major bleeding in the combined 3-month and 6-month period: Idrabiotaparinux vs. Warfarin Odds ratio [2, 13]: 0.66 | PE, DVT or major bleeding up to the end of study: Idrabiotaparinux vs. Warfarin Odds ratio [2, 13]: 0.54 | PE, DVT or major bleeding in the combined 3-month and 6-month period: Patients with event ([2]; composite endpoint): 65 (4.1%) n (%) | PE, DVT or major bleeding up to the end of study: Patients with event ([2]; composite endpoint): 82 (5.1%) n (%) | Patients who died on study [3]: 5.9% | Any clinically relevant bleeding within 190 days: Idrabiotaparinux vs. Warfarin odds ratio ([4]; 6-month stratum): 0.81 | Clinically relevant bleedings up to Day 190 ([4]; 6-month stratum): 6.6% | Fatal bleeding within 190 days from randomization: Patients with event ([4]; 6-month stratum): 7 (0.6%) n (%) | Fatal bleeding within 190 days: Idrabiotaparinux to Warfarin odds ratio (95% CI) ([4]; 6-month stratum): 1.40 (0.44 to 4.42) | Intracranial haemorrhage (fatal or not) within 190 days from randomization: Patients with event ([4]; 6-month stratum): 8 (0.6%) n (%) | Intracranial haemorrhage (fatal or not) within 190 days: Idrabiotaparinux to Warfarin odds ratio (95% CI) ([4]; 6-month stratum): 1.33 (0.46 to 3.85) | Major bleeding within 190 days from randomization: Patients with event ([4]; 6-month stratum): 24 (1.9%) n (%) | Major bleeding within 190 days: Idrabiotaparinux to Warfarin odds ratio (95% CI) ([4]; 6-month stratum): 0.66 (0.39 to 1.11) | Patients who experienced a major bleeding up to Day 190 ([4]; 6-month stratum): 1.9% | Any clinically relevant bleeding within 99 days from randomization: Patients with event ([4]; Randomized population): 72 (4.5%) n (%) | Fatal bleeding within 99 days from randomization: Patients with event ([4]; Randomized population): 3 (0.2%) n (%) | Fatal bleeding within 99 days: Idrabiotaparinux to Warfarin odds ratio (95% CI) ([4]; Randomized population): 0.50 (0.13 to 2.01) | Intracranial haemorrhage (fatal or not) within 99 days from randomization: Patients with event ([4]; Randomized population): 4 (0.3%) n (%) | Intracranial haemorrhage (fatal or not) within 99 days: Idrabiotaparinux to Warfarin odds ratio (95% CI) ([4]; Randomized population): 0.57 (0.17 to 1.96) | Major bleeding within 99 days from randomization: Patients with event ([4]; Randomized population): 20 (1.3%) n (%) | Major bleeding within 99 days: Idrabiotaparinux to Warfarin odds ratio (95% CI) ([4]; Randomized population): 0.51 (0.30 to 0.88) | Any clinically relevant bleeding within 190 days from randomization: Patients with event [4, 5]: 84 (6.6%) n (%) | Any clinically relevant bleeding within 99 days: Idrabiotaparinux vs. Warfarin odds ratio ([4]; Randomized population, Mantel-Haenszel, stratified): 0.67 | Major bleeding within 99 days: Idrabiotaparinux to Warfarin odds ratio (95% CI) ([4]; Randomized population, listed as idrabiotaparinux): 0.51 | Hazard ratio, clinically relevant bleeding [4, 10]: 0.70 | Cumulative incidence of clinically relevant bleeding at Day 99 [4, 11]: 4.6% | Cumulative incidence of clinically relevant bleeding at Day 190 [4, 11]: 6.6% | Cumulative incidence rate of clinically relevant bleeding at Day 360 [4, 12]: 8.3% | Incidence of clinically relevant bleeding up to Day 99 ([4]; up to Day 99): 4.5% | Patients who experienced a major bleeding up to Day 99 ([4]; up to Day 99): 1.3% | Hazard ratio, clinically relevant bleeding ([4]; up to the end of study): 0.79
